In patent publication US20260241021A1 (priority 2023, published 2026):

Assays:
[1] = molecular target: cathepsin B (Homo sapiens, UniProt P07858); experiment: Digestion and exatecan release of linker-payloads by cathepsin B cleavage (LC-UV); format: in vitro ADME; settings: 5 μg linker-payload, 10 μg/mL activated cathepsin B, 37° C., sampled for 24 hours
Experimental: This study was conducted to evaluate how the DCBO and BCN in the linker-payloads would affect drug release. The study also included the linker-payloads with the two-amino acid spacer “GG” in the digestion comparison. The study was evaluated by digesting the linker-payloads using cathepsin B and quantifying the released exatecan by LC-UV. To perform exatecan release test by cathepsin B cleavage, 5 μg of the linker-payloads were treated with 10 μg/mL of activated cathepsin B in digestion buffer for payload cleavage at 37° C. The reaction mixture was sampled every two hours for 24 hours, and the amounts of released exatecan and residual linker-payload were analyzed by LC-UV. A C18 column (Symmetry 5 μm, 2.1×150 mm Waters) was applied for this analysis. Samples were eluted with ACN/water gradient at a flow rate of 0.5 mL/min, and the chromatogram was monitored at 263 nm.

[2] = tested on: SKBR-3 breast cancer cells; experiment: Cytotoxicity of linker-payloads (CellTiter-Glo, six days); format: cell-based, human; settings: SKBR-3, six days
Description: Human SKBR-3 breast cancer cells (ATCC, HTB-30) were used in this study. […] The IC50 data for the different linker payloads were similar.

[3] = tested on: Capan-1 pancreatic cancer cells; settings: Capan-1, 6 days
Experimental: (§1) Tumor cells (2×10^3 cells/well) were seeded in 96 well plates and treated with ADCs for 6 days. CellTiter-Glo® Reagent (Cat. G7572, Promega) was prepared by adding CellTiter-Glo® Buffer into lyophilized CellTiter-Glo® Substrate. Reconstituted CellTiter-Glo® Reagent was added into the culture medium with cells at 1:1 ratio after treatment for 6 days. The plate was placed on an orbital shaker for 2 minutes to induce cell lysis and then incubated at room temperature for 10 minutes before recording the luminescent signals by Luminometer. The viability of each treated sample was compared to the non-treated control. The IC50 of each ADC was calculated by Prism.

[4] = tested on: NCI-N87 gastric cells; settings: NCI-N87, 6 days
Experimental: as §1

Compound | amount of released exatecan [1] [%] | percentage of linker-payloads existed (% linker-payload) after cathepsin B cleavage reaction [1] [%] | IC50 [2] [nM] | IC50 ([2]; Homo sapiens, SK-BR-3, 144 h) [nM] | IC50 [3] [nM] | IC50 [4] [nM]
BCN-GGVA-Hydra-PAB-PEG24-Exatecan [DL-8] | 52.6 | 4 | 138 |  |  | 
CC[C@@]1(O)C(=O)OCc2c1cc1n(c2=O)Cc2c-1nc1cc(F)c(C)c3c1c2[C@@H](NC(=O)OC(C(=O)NCCOCCOCCOCCOCCOCCOCCOCCOCCOCCOCCOCCOCCOCCOCCOCCOCCOCCOCCOCCOCCOCCOCCOCCOC)c1ccc(NC(=O)[C@H](C)NC(=O)[C@@H](NC(=O)CCC(=O)N2Cc4ccccc4C#Cc4ccccc42)C(C)C)cc1)CC3 (mixture of isomers) [DL-5, DBCO-VA-Hydra-PAB-PEG24-Exatecan] |  | 75 |  | 244 |  | 
TX05-DBCO-PEG24-Exatecan ADC [ADC-4] |  |  |  |  | 71.8 | 5.51
CC[C@@]1(O)C(=O)OCc2c1cc1n(c2=O)Cc2c-1nc1cc(F)c(C)c3c1c2[C@@H](NC(=O)OC(C(=O)NCCOCCOCCOCCOCCOCCOCCOCCOCCOCCOCCOCCOCCOCCOCCOCCOCCOCCOCCOCCOCCOCCOCCOCCOC)c1ccc(NC(=O)[C@H](C)NC(=O)[C@@H](NC(=O)OC[C@@H]2[C@@H]4CCC#CCC[C@@H]42)C(C)C)cc1)CC3 (mixture of isomers) [DL-6, BCN-VA-Hydra-PAB-PEG24-Exatecan] |  | 14 |  | 221 |  | 
TX05-MCCA-PEG24-Exatecan ADC [ADC-3] |  |  |  |  | 64.6 | 2.9
CC[C@@]1(O)C(=O)OCc2c1cc1n(c2=O)Cc2c-1nc1cc(F)c(C)c3c1c2[C@@H](NC(=O)OC(C(=O)NCCOCCOCCOCCOCCOCCOCCOCCOCCOCCOCCOCCOCCOCCOCCOCCOCCOCCOCCOCCOCCOCCOCCOCCOC)c1ccc(NC(=O)[C@H](C)NC(=O)[C@@H](NC(=O)CNC(=O)CNC(=O)CCC(=O)N2Cc4ccccc4C#Cc4ccccc42)C(C)C)cc1)CC3 (mixture of isomers) [DL-7, DBCO-GGVA-Hydra-PAB-PEG24-Exatecan] |  | 66 |  | 96.7 |  | 
